Experimental data published in ChEMBL document CHEMBL1127172, “Novel pseudosymmetric inhibitors of HIV-1 protease” (Bioorg Med Chem Lett, 1993).

Assays:
[1] = system: Human immunodeficiency virus 1; assay: Antiviral activity against HIV-1 LAV virus infected MT-2 cells with reference to AZT (ED90=0.3 uM); format: functional, MT2
[2] = biological target: Human immunodeficiency virus type 1 protease (Human immunodeficiency virus 1, UniProt Q72874); assay: In vitro inhibition of HIV-1 protease at pH 6 using 164 uM peptide substrate
[3] = biological target: Human immunodeficiency virus type 1 protease (Human immunodeficiency virus 1) (UniProt Q72874); assay: The compound was tested in vitro for the % inhibition of HIV-1 protease at 100 uM concentration
[4] = biological target: T1, Gastricsin (Homo sapiens, UniProt P20142); assay: The compound was tested for its inhibitory activity against human gastricsin
T1 sequence (P20142 whole entry): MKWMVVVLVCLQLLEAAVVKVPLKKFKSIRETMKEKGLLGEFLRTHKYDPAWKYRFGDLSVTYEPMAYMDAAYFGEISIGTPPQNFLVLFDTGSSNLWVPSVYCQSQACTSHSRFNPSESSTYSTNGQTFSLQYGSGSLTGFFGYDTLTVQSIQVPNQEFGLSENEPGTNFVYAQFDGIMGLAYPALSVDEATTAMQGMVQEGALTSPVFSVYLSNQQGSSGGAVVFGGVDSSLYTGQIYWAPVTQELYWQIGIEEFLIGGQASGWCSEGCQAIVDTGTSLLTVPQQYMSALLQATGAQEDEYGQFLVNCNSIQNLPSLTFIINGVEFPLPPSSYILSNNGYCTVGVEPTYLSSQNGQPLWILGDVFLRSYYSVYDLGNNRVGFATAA

[5] = biological target: T2, Cathepsin E (Homo sapiens, UniProt P14091); assay: The compound was tested for its inhibitory activity against human cathepsin E
T2 sequence (P14091 whole entry): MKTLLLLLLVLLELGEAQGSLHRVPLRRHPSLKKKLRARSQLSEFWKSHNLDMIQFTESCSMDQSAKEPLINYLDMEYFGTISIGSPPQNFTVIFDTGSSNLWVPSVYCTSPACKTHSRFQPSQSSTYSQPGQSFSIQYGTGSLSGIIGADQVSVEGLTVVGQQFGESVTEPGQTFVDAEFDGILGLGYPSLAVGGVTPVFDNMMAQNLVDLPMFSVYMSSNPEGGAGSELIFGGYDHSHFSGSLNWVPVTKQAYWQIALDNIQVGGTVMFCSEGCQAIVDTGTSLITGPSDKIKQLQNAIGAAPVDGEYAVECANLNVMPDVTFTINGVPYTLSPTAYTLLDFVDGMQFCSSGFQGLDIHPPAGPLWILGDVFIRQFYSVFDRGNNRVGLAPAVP

[6] = biological target: Cathepsin D (Homo sapiens, UniProt P07339); assay: The compound was tested for its inhibitory activity against human cathepsin D
[7] = biological target: T3, Renin (Homo sapiens, UniProt P00797); assay: The compound was tested for its inhibitory activity against human renin
T3 sequence (P00797 whole entry): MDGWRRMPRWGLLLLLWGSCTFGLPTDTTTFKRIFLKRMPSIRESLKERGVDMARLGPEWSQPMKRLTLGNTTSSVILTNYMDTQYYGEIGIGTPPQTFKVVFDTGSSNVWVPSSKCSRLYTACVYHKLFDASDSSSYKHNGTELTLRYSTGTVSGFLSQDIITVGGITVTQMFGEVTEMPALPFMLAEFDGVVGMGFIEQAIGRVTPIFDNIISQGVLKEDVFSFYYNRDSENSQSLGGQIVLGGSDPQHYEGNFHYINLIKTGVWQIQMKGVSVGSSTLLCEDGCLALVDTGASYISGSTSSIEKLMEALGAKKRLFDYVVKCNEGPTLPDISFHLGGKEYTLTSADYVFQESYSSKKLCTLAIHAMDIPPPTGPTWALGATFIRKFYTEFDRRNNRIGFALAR

[8] = system: MT2; assay: The compound was tested for its antiviral activity against HIV-1LAV virus infected MT-2 cells; format: functional, Homo sapiens

Sequence of Cathepsin D (P07339 65-162 limits assumed): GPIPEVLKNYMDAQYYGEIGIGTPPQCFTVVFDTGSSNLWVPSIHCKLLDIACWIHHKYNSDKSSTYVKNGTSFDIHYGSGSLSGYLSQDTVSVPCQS
Sequence of Cathepsin D (P07339 169-412 limits assumed): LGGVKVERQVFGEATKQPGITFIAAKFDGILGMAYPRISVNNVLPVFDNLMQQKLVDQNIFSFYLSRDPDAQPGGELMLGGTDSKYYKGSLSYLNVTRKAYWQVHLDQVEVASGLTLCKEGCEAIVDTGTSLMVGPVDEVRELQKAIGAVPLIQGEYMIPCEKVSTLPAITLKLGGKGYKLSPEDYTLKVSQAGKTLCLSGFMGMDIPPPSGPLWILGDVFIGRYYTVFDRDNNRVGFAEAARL

SMILES | ED90 [1] | IC50 [2] | other results
CC(=O)N[C@H](C(=O)N[C@@H](Cc1ccccc1)[C@@H](O)CN(CC(C)C)NC(=O)[C@@H](NC(C)=O)C(C)C)C(C)C | >1000 nM | 45 nM | 
CC(C)[C@H](N)C(=O)N[C@@H](Cc1ccccc1)[C@@H](O)CN(Cc1ccccc1)NC(=O)[C@H](N)C(C)C |  | > 100000 nM | inhibition [3]: 32%
CC(=O)N[C@H](C(=O)N[C@@H](Cc1ccccc1)[C@@H](O)CN(Cc1ccccc1)NC(=O)[C@H](NC(C)=O)C(C)C)C(C)C | 10000 nM | 30 nM | 
CC(C)[C@H](NC(=O)N1CCOCC1)C(=O)N[C@@H](Cc1ccccc1)[C@@H](O)CN(Cc1ccccc1)NC(=O)[C@H](NC(=O)N1CCOCC1)C(C)C |  | 2000 nM | 
CC(C)[C@H](NC(=O)Cc1cccnc1)C(=O)N[C@@H](Cc1ccccc1)[C@@H](O)CN(Cc1ccccc1)NC(=O)[C@H](NC(=O)Cc1cccnc1)C(C)C |  | 500 nM | 
CC(C)[C@H](NC(=O)c1ccc2ccccc2n1)C(=O)N[C@@H](Cc1ccccc1)[C@@H](O)CN(Cc1ccccc1)NC(=O)[C@H](NC(=O)c1ccc2ccccc2n1)C(C)C |  | 65 nM | 
CC(C)CN(C[C@H](O)[C@H](Cc1ccccc1)NC(=O)[C@@H](NC(=O)OCc1ccccc1)C(C)C)NC(=O)[C@@H](NC(=O)OCc1ccccc1)C(C)C | >1000 nM | 10 nM | 
CC(=O)N[C@H](C(=O)N[C@@H](Cc1ccccc1)[C@@H](O)CN(CC1CCCCC1)NC(=O)[C@@H](NC(C)=O)C(C)C)C(C)C | 1000 nM | 9 nM | IC50 [4]: 1000 nM; IC50 [5]: 2000 nM; IC50 [6]: 7500 nM; IC50 [7]: > 58000 nM
CC(C)[C@H](NC(=O)OCc1ccccc1)C(=O)N[C@@H](Cc1ccccc1)[C@@H](O)CN(Cc1ccc(F)cc1)NC(=O)[C@@H](NC(=O)OCc1ccccc1)C(C)C | 1000 nM | 22 nM | 
CC(C)[C@H](NC(=O)OCc1ccccc1)C(=O)N[C@@H](Cc1ccccc1)[C@@H](O)CN(Cc1ccccc1)NC(=O)[C@H](NC(=O)OCc1ccccc1)C(C)C | 100 nM | 33 nM | 
CC(C)[C@H](NC(=O)OCc1ccccc1)C(=O)NN(Cc1ccccc1)C[C@H](O)[C@H](Cc1ccccc1)NC(=O)[C@H](NC(=O)OCc1ccccc1)C(C)C |  | > 100000 nM | inhibition [3]: 40%
CC(C)[C@H](NC(=O)OC(C)(C)C)C(=O)N[C@@H](Cc1ccccc1)[C@@H](O)CN(Cc1ccccc1)NC(=O)[C@H](NC(=O)OC(C)(C)C)C(C)C |  | 52000 nM | 
CC(C)[C@H](NC(=O)OCc1ccccc1)C(=O)N[C@@H](Cc1ccccc1)[C@@H](O)CN(CC1CCCCC1)NC(=O)[C@@H](NC(=O)OCc1ccccc1)C(C)C | 1000 nM | 95 nM | 
Cc1cn([C@H]2C[C@H](N=[N+]=[N-])[C@@H](CO)O2)c(=O)[nH]c1=O [ZIDOVUDINE] |  |  | ED90 [8]: 300 nM
CC(C)[C@H](NC(=O)Cc1ccccc1)C(=O)N[C@@H](Cc1ccccc1)[C@@H](O)CN(Cc1ccccc1)NC(=O)[C@H](NC(=O)Cc1ccccc1)C(C)C |  | 360 nM | 
CC(C)(C)OC(=O)N[C@@H](Cc1ccccc1)[C@@H](O)CN(Cc1ccccc1)NC(=O)OC(C)(C)C |  | ~50000 nM | 
CC(=O)N[C@H](C(=O)N[C@@H](Cc1ccccc1)[C@@H](O)CN(Cc1ccc(F)cc1)NC(=O)[C@@H](NC(C)=O)C(C)C)C(C)C | 10000 nM | 28 nM | 
CC(=O)N[C@H](C(=O)N[C@@H](Cc1ccccc1)[C@@H](O)CN(Cc1ccc(C#N)cc1)NC(=O)[C@@H](NC(C)=O)C(C)C)C(C)C | >10000 nM | 50 nM | 
CC(C)[C@H](NC(=O)OCc1ccccc1)C(=O)N[C@@H](Cc1ccccc1)[C@@H](O)CN(Cc1ccc(C#N)cc1)NC(=O)[C@@H](NC(=O)OCc1ccccc1)C(C)C | 100 nM | 24 nM | 
